Common to all, as to test: relative viability (nuclei count vs DMSO), 5 days (fraction); higher = more cells survive
Compound in the assay “Mirin + Alpelisib”: N=C1NC(=O)/C(=C/c2ccc(O)cc2)S1 [Mirin] + Cc1nc(NC(=O)N2CCC[C@H]2C(N)=O)sc1-c1ccnc(C(C)(C)C(F)(F)F)c1 [Alpelisib] (partner 2 µM)
The gist of the method: (§1)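 Values are medians from duplicate plates. Each reflects relative viability, defined as the nuclei count of treated wells over that of vehicle wells. Lung cancer cell lines in 1536-well plates were pin-tool dosed one day after seeding with one drug alone or with a fixed anchor-drug dose plus five library-drug doses (not always all listed) in √10 steps, then fixed, stained and imaged at 4× after 5 days.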

Compound in assay [1]: CCC1=CN=CN=C1N2CCN(CC2)CC3=NC4=C(N3)C=C(C=C4)C(F)(F)F + Nc1nc2[nH]cc(CCc3ccc(C(=O)N[C@@H](CCC(=O)O)C(=O)O)cc3)c2c(=O)[nH]1 [Pemetrexed] (partner 0.2 µM)
The gist of the method: as §1

Compound in assay [2]: CCn1c(-c2nonc2N)nc2cnc(Oc3cccc(NC(=O)c4ccc(OCCN5CCOCC5)cc4)c3)cc21 + CS(=O)(=O)N1CCN(Cc2cc3nc(-c4cccc5[nH]ncc45)nc(N4CCOCC4)c3s2)CC1 [Pictilisib] (partner 1 µM)
The gist of the method:
as §1

Compound in assay [3]: CCn1c(-c2nonc2N)nc2cnc(Oc3cccc(NC(=O)c4ccc(OCCN5CCOCC5)cc4)c3)cc21 + COc1cc2c(Oc3ccc(NC(=O)C4(C(=O)Nc5ccc(F)cc5)CC4)cc3F)ccnc2cc1OCCCN1CCOCC1 [Foretinib] (partner 0.25 µM)
The gist of the method:
as §1

Turning to HCC-44, the relative viability was 0.852 in the assay with Mirin + Alpelisib (first compound 0.25 µM); 0.879 with Mirin + Alpelisib (first compound 0.7906 µM); 0.806 with Mirin + Alpelisib (first compound 2.5 µM); 0.762 with Mirin + Alpelisib (first compound 7.906 µM); 0.705 in the assay with Mirin + Alpelisib (first compound 25 µM); 0.635 in assay [1] (first compound 0.04 µM). In addition, the relative viability was determined as 0.63 in assay [1] (first compound 0.1265 µM); 0.684 in assay [1] (first compound 0.4 µM); 0.685 in assay [1] (first compound 1.265 µM); 0.644 in assay [1] (first compound 4 µM); 0.557 in assay [2] (first compound 0.04 µM); 0.529 in assay [2] (first compound 0.1265 µM). Further, the relative viability is 0.276 in assay [2] (first compound 0.4 µM), 0.236 in assay [2] (first compound 1.265 µM) and 0.244 in assay [2] (first compound 4 µM).

As to HCC-78, the relative viability with Mirin + Alpelisib (first compound 0.25 µM) worked out at 0.389; with Mirin + Alpelisib (first compound 0.7906 µM), 0.393; with Mirin + Alpelisib (first compound 2.5 µM), 0.366; with Mirin + Alpelisib (first compound 7.906 µM), 0.291; in the assay with Mirin + Alpelisib (first compound 25 µM), 0.298; in assay [3] (first compound 0.04 µM), 0.596. In addition, the relative viability in assay [3] (first compound 0.1265 µM) is 0.584; in assay [3] (first compound 1.265 µM) it was 0.64; in assay [3] (first compound 4 µM), 0.713; in assay [1] (first compound 0.04 µM) it was 0.913; in assay [1] (first compound 0.1265 µM) it was 0.829; in assay [1] (first compound 0.4 µM), 0.905. Also, the relative viability in assay [1] (first compound 1.265 µM) came to 0.898; in assay [1] (first compound 4 µM) it was 0.952; in assay [2] (first compound 0.04 µM), 0.3; in assay [2] (first compound 0.1265 µM), 0.311; in assay [2] (first compound 0.4 µM), 0.208; in assay [2] (first compound 1.265 µM), 0.262. For the same cell line, the relative viability in assay [2] (first compound 4 µM) stood at 0.367.

As for HCC-366, the relative viability stood at 0.34 with Mirin + Alpelisib (first compound 0.25 µM); 0.37 with Mirin + Alpelisib (first compound 0.7906 µM); 0.545 with Mirin + Alpelisib (first compound 2.5 µM); 0.296 with Mirin + Alpelisib (first compound 7.906 µM); 0.253 with Mirin + Alpelisib (first compound 25 µM); 0.946 in assay [3] (first compound 0.04 µM). In addition, the relative viability amounted to 1 in assay [3] (first compound 0.1265 µM); 0.907 in assay [3] (first compound 0.4 µM); 0.937 in assay [3] (first compound 1.265 µM); 0.968 in assay [3] (first compound 4 µM); 0.174 in assay [1] (first compound 0.04 µM); 0.22 in assay [1] (first compound 0.1265 µM). Moreover, the relative viability in assay [1] (first compound 0.4 µM) was 0.156; in assay [1] (first compound 1.265 µM) it was 0.137; in assay [1] (first compound 4 µM) it was 0.15; in assay [2] (first compound 0.04 µM), 0.124; in assay [2] (first compound 0.1265 µM) it was 0.151; in assay [2] (first compound 0.4 µM), 0.0942. The relative viability is 0.0463 in assay [2] (first compound 1.265 µM) and 0.0657 in assay [2] (first compound 4 µM).

With HCC-827, the relative viability with Mirin + Alpelisib (first compound 0.25 µM) turned out to be 1.02; with Mirin + Alpelisib (first compound 0.7906 µM) it was 1.02; in the assay with Mirin + Alpelisib (first compound 2.5 µM), 0.958; with Mirin + Alpelisib (first compound 7.906 µM) it was 1.01; with Mirin + Alpelisib (first compound 25 µM), 1.12; in assay [3] (first compound 0.04 µM), 1.11. In addition, the relative viability in assay [3] (first compound 0.1265 µM) came out at 1.05; in assay [3] (first compound 0.4 µM) it was 0.996; in assay [3] (first compound 1.265 µM), 0.877; in assay [3] (first compound 4 µM) it was 0.751; in assay [1] (first compound 0.04 µM), 0.268; in assay [1] (first compound 0.1265 µM), 0.221. In addition, the relative viability in assay [1] (first compound 0.4 µM) worked out at 0.276; in assay [1] (first compound 1.265 µM), 0.242; in assay [1] (first compound 4 µM), 0.278; in assay [2] (first compound 0.04 µM), 1.08; in assay [2] (first compound 0.1265 µM), 1.06; in assay [2] (first compound 0.4 µM), 1.09. For the same cell line, the relative viability is 0.824 in assay [2] (first compound 1.265 µM) and 0.933 in assay [2] (first compound 4 µM).

HOP-62: the relative viability in the assay with Mirin + Alpelisib (first compound 0.25 µM) came to 0.969; with Mirin + Alpelisib (first compound 0.7906 µM) it was 1.02; in the assay with Mirin + Alpelisib (first compound 2.5 µM), 1.13; in the assay with Mirin + Alpelisib (first compound 25 µM) it was 0.939; in assay [3] (first compound 0.04 µM) it was 1.12; in assay [3] (first compound 0.1265 µM), 1.22. Further, the relative viability is 1.02 in assay [3] (first compound 0.4 µM); 0.864 in assay [3] (first compound 1.265 µM); 0.789 in assay [3] (first compound 4 µM); 0.283 in assay [1] (first compound 0.04 µM); 0.293 in assay [1] (first compound 0.1265 µM); 0.326 in assay [1] (first compound 0.4 µM). Moreover, the relative viability amounted to 0.275 in assay [1] (first compound 1.265 µM); 0.283 in assay [1] (first compound 4 µM); 0.88 in assay [2] (first compound 0.04 µM); 0.757 in assay [2] (first compound 0.1265 µM); 0.599 in assay [2] (first compound 0.4 µM); 0.535 in assay [2] (first compound 1.265 µM). Besides, in assay [2] (first compound 4 µM), the relative viability was 0.433.

For the cell line IA-LM, the relative viability with Mirin + Alpelisib (first compound 0.25 µM) is 0.668; in the assay with Mirin + Alpelisib (first compound 0.7906 µM), 0.768; with Mirin + Alpelisib (first compound 2.5 µM), 0.797; with Mirin + Alpelisib (first compound 7.906 µM), 0.434; in the assay with Mirin + Alpelisib (first compound 25 µM) it was 0.812; in assay [3] (first compound 0.04 µM), 1.65. Moreover, the relative viability in assay [3] (first compound 0.1265 µM) came out at 1.39; in assay [3] (first compound 0.4 µM) it was 1.13; in assay [3] (first compound 1.265 µM) it was 1.06; in assay [3] (first compound 4 µM), 0.898; in assay [2] (first compound 0.04 µM), 0.751; in assay [2] (first compound 0.1265 µM), 0.538. Also, the figures for the relative viability in assay [2] (first compound 0.4 µM), in assay [2] (first compound 1.265 µM) and in assay [2] (first compound 4 µM) were 0.634, 0.733 and 0.674, respectively.

On to LC-2-ad, for which the relative viability was determined as 0.865 with Mirin + Alpelisib (first compound 0.25 µM); 0.926 in the assay with Mirin + Alpelisib (first compound 0.7906 µM); 0.98 with Mirin + Alpelisib (first compound 2.5 µM); 0.821 with Mirin + Alpelisib (first compound 7.906 µM); 0.726 in the assay with Mirin + Alpelisib (first compound 25 µM); 1 in assay [3] (first compound 0.04 µM). The relative viability amounted to 0.927 in assay [3] (first compound 0.1265 µM); 0.784 in assay [3] (first compound 0.4 µM); 0.529 in assay [3] (first compound 1.265 µM); 0.687 in assay [3] (first compound 4 µM); 0.272 in assay [1] (first compound 0.04 µM); 0.266 in assay [1] (first compound 0.1265 µM). In addition, the relative viability in assay [1] (first compound 0.4 µM) came out at 0.283; in assay [1] (first compound 1.265 µM), 0.289; in assay [1] (first compound 4 µM), 0.292; in assay [2] (first compound 0.04 µM), 0.683; in assay [2] (first compound 0.1265 µM), 0.729; in assay [2] (first compound 0.4 µM), 0.372. Besides, the figures for the relative viability in assay [2] (first compound 1.265 µM) and in assay [2] (first compound 4 µM) were 0.451 and 0.386, respectively.

In the case of LCLC-97TM1, the relative viability with Mirin + Alpelisib (first compound 0.25 µM) amounted to 0.253; with Mirin + Alpelisib (first compound 0.7906 µM), 0.31; with Mirin + Alpelisib (first compound 2.5 µM), 0.197; with Mirin + Alpelisib (first compound 7.906 µM), 0.18; with Mirin + Alpelisib (first compound 25 µM), 0.129; in assay [3] (first compound 0.04 µM), 1.03. The relative viability in assay [3] (first compound 0.1265 µM) is 1.04; in assay [3] (first compound 0.4 µM), 0.813; in assay [3] (first compound 1.265 µM), 0.902; in assay [3] (first compound 4 µM), 0.937; in assay [1] (first compound 0.04 µM) it was 0.161; in assay [1] (first compound 0.1265 µM), 0.152. The relative viability in assay [1] (first compound 0.4 µM) came out at 0.153; in assay [1] (first compound 1.265 µM), 0.194; in assay [1] (first compound 4 µM) it was 0.173; in assay [2] (first compound 0.04 µM), 0.261; in assay [2] (first compound 0.1265 µM) it was 0.363; in assay [2] (first compound 1.265 µM), 0.351. Moreover, in assay [2] (first compound 4 µM), the relative viability stood at 0.236.

Source of the values: the supplement of paper PMC10307832.
